What all share (format): cell-based
Test [1] concerns argininosuccinate synthetase. Nature of the test: Argininosuccinate synthetase (AS) activity of rat aortic smooth muscle cells induced with LPS/interferon-gamma in presence of test agent (Example I). As to conditions: mithramycin 0.001 to 10 μg/ml with LPS 30 μg/ml plus interferon-gamma 50 ng/ml, 24 hours; FIG. 1. The procedure: Aortic smooth muscle cells were cultured by explanting segments of the medial layer of aortae from adult male Fischer 344 rats. Aortae were removed aseptically and freed of adventitial and endothelial cells by scraping both the lumenal and abluminal surfaces. Medial fragments (1-2 mm) were allowed to attach to dry Primaria 25 cm^2 tissue culture flasks (Falcon; Oxnard, Calif.) which were kept moist with growth medium until cells emerged. Cultures were fed twice weekly with medium 199 containing 10% fetal bovine serum, 25 mM HEPES, 2 mM L-glutamine, 40 μg/ml endothelial cell growth supplement (Biomedical Technologies; Stoughton, Mass.) and 10 μg/ml gentamycin (GIBCO; Grand Island, N.Y.). When primary cultures became confluent, they were passaged by trypsinization and the explants were discarded. Cells in passage 10-15 were seeded at 20,000/well in 96-well plates. […]
Argininosuccinate synthetase activity was assayed based on the conversion of [^14 C]aspartate to [^14 C]argininosuccinate, as described in O'Brien, W. E., Biochemistry 18, 5353-5356, 1979, with the exception that aspartate was present at a concentration of 30 μm (0.021 μCi/nmol). […] Reactions were allowed to proceed for 90 minutes at 37° C before termination and quantification of the [^14 C]argininosuccinate formed, using ion exchange chromatography on Dowex 1-X8 (200-400 mesh, Bio-Rad).

Test [2] concerns rat aortic smooth muscle cells. Description: Nitrite production (indicator of cellular NO synthesis) by LPS/interferon-gamma induced rat aortic smooth muscle cells (Examples IV, V). As to conditions: 24 hours, FIG. 4. How it is done: Rat aortic smooth muscle cells were grown as described in Example I and were continuously treated with 30 μg/ml of bacterial lipopolysaccharide in combination with 50 ng/ml of interferongamma. Concentrations of mithramycin as indicated in FIG. 4 were added either simultaneously with immunostimulant (filled in circles in FIG. 4) or 4 hours later (open circles in FIG. 4).
Nitrite was used as an indicator of cellular NO synthesis and assay was carried out as described in Gross, S. S., et al, J. Biol. Chem. 267, 25722-25729 (1992). In the assay, cells were treated with serum- and arginine-free RPMI 1640 medium containing the desired test agents for 24 hours. The accumulation of nitrite in the cell culture medium was quantified colorimetrically after adding 100 μl of Griess reagent (1% sulfanilamide and 0.1% naphthalene diamine in 5% o-phosphoric acid) to an equal volume of sample.
Rat aortic smooth muscle cells were grown as described in Example I and were treated with 30 μg/ml of bacterial lipopolysaccharide in combination with 50 ng/ml of interferon-gamma. Concentrations of L-citrulline and L-arginine as indicated in FIG. 5 were added simultaneously with immunostimulant. Nitrite was used as an indicator of cellular NO synthesis and assay therefor was carried out as described in Example IV.

The subject of test [3] is argininosuccinate synthetase mRNA. Description: RT-PCR of argininosuccinate synthetase mRNA in induced rat aortic smooth muscle cells (Example III). As to conditions: LPS 30 μg/ml plus interferon-gamma 50 ng/ml with mithramycin, 6 hours; FIG. 3. The procedure:
Rat aortic smooth muscle cells were grown as described in Example I and were treated with 30 μg/ml bacterial lipopolysaccharide in combination with 50 ng/ml interferon-gamma. […] RNA was extracted by a modified guanidinium isothiocyanate method (RNAzol; Cinna/Biotecz, Houston, Tex.). Reverse transcriptase-polymerase chain reaction was performed by standard methods using 1 μg of total RNA. This was followed by polymerase chain reaction amplification using synthetic gene-specific primers for rat argininosuccinate synthetase as described in Amaya, Y., et al, J. Biochem. (Tokyo) 103, 177-181 (1988), for argininosuccinate lyase as described in Surh, L. C., et al, Nucleic Acids Research, 16, 9352 (1988) and murine-inducible nitric oxide synthase as described in Lyons, C. R., et al, J. Biol. Chem. 267, 6370-6374 (1992). The primers are specifically described in Hattori, Y., et al, J. Biol. Chem. 269, 9405-9408 (1994). Polymerase chain reaction amplification was performed according to the following schedule: denaturation, annealing, and elongation at 95, 55 and 72° C. for 30 sec, 30 sec and 1 min, respectively, for 30 cycles. […] Polymerase chain reaction products were electrophoresed on a 1.5% agarose gel containing ethidium bromide and visualized by UV-induced fluorescence. […]

Molecules are shown by their SMILES.

As for `COC(C(=O)C(O)C(C)O)C1Cc2cc3cc(OC4CC(OC5CC(O)C(O)C(C)O5)C(O)C(C)O4)c(C)c(O)c3c(O)c2C(=O)C1OC1CC(OC2CC(OC3CC(C)(O)C(O)C(C)O3)C(O)C(C)O2)C(O)C(C)O1` (stereo not shown) [mithramycin], the argininosuccinate synthetase activity result in test [1] is “as a function of its concentration blocks argininosuccinate synthetase activity”. The “nitrite accumulation in cell culture medium” value in test [2] (mithramycin added 4 hours after immunostimulant) is listed as “effectiveness to block NO production is markedly diminished”; in test [2] (mithramycin added simultaneously with immunostimulant) it was “inhibits induction of NO synthetic activity but is not a direct inhibitor of argininosuccinate synthetase or nitric oxide synthase”. In test [3], the “gene transcription of argininosuccinate synthetase (mRNA level)” value is “inhibits gene transcription of argininosuccinate synthetase”.

(Values after patent US5545625A, “Preventing conversion of citrulline to argininosuccinate to limit pathological nitric oxide overproduction” (The Medical College of Wisconsin Research Foundation, Inc., priority 1994, dated 1996).)
